Test results taken from PubChem BioAssay AID2060898 (Molecular Pharmacology Branch, DTP, NCI, 2025).

Tested on: 616215-338-R-J1-PDC complex spheroid viability
Assay: Anticancer human tumor 616215-338-R-J1-PDC patient-derived colon adenocarcinoma cell line growth inhibition [RAS]
Conditions: for IC50: curve of first compound; for viability, T/C: stronger effect = lower value
Excerpt: RAS pathway inhibitors in Combinations in Complex Spheroids
A high-throughput screen of multi-cell type tumor spheroids was designed to identify active combinations of RAS pathway inhibitors and targeted small molecules. Complex spheroids include a stromal component modeled by human endothelial cells (HUVEC) and fibroblasts modeled by human mesenchymal stem cells (MSCs). The concentration ranges selected for each drug and investigational agent were based upon clinically achievable concentrations if the clinical Cmax of the agent was known.
Compounds. The drugs and investigational agents: abemaciclib (NSC768073), cobimetinib (NSC768068), divarasib (GDC6063, NSC841802), docetaxel (NSC628503), GDC-1971 (RLY-1971, NSC841576), gemcitabine (NSC613327), inavolisib (NSC800729), ipatasertib (NSC767898), KB-0742 (NSC834161), MRTX-1133 (NSC836407), osimertinib (NSC779217), RMC-4630 (NSC839698), RMC-6236 (NSC851965), RMC-6291 (NSC852671), Ro-3306 (NSC812927), sapanisertib (NSC764658), SN-38 (NSC673596), staurosporine (NSC755774), SY5609 (NSC837396), and tovorafenib (DAY101, NSC766906), were obtained from the National Cancer Institute (NCI) Developmental Therapeutics Program Chemical Repository. The FDA-approved anticancer drug set is available from the NCI Developmental Therapeutics Program. […] The stock solutions were prepared in dimethyl sulfoxide (DMSO, Sigma-Aldrich, St. Louis, MO, cat. D2650) at 800-fold the tested concentration and stored at -70 degrees C prior to their use. All drugs and investigational agents were tested over a range starting from a high concentration at or near the clinical Cmax and decreasing in half-log increments. If the clinical Cmax for an agent had not been determined, the highest concentration tested was 10 microM.
Cell Culture. All cells were maintained in an incubator at 37 degrees C and 5% CO2 with 95% humidity. The PDC lines were cultured according to standard operating procedures established by the NCI PDMR. All PDCs were thawed and cultured in Matrigel-coated flasks prepared with a working solution of 1X Ham's F-12 nutrient mix, without supplementation (Invitrogen, Waltham, MA, cat. 11765054), 100 U/mL penicillin-streptomycin (Invitrogen, cat. 15140122), and 2.5% Matrigel (Corning Inc., Corning, NY, cat. 354248) for the first three passages. The 362531-283-R-J2-PDC and 782815-120-R-J1-PDC lines were cultured in 6C/Colon 1B media, which includes advanced DMEM/F-12 (Thermo Fisher Scientific, cat. 12634028), 10 mM HEPES (Thermo Fisher Scientific, cat. 15630080), 1X GlutaMAX supplement (Thermo Fisher Scientific, cat. 35050061), 0.1 mg/mL primocin (InvivoGen, San Diego, CA, cat. ant-pm-2), 10% defined fetal bovine serum, heat inactivated (HyClone Laboratories Inc., Logan, UT, cat. SH30070.03HI), 50% L-WRN conditioned media (ATCC, cat. CRL-3276), 1.25 mM N-Acetyl-L-cysteine (Sigma-Aldrich, cat. A9165), 10 mM nicotinamide (Sigma-Aldrich, cat. N0636), 1X B-27 supplement (Thermo Fisher Scientific, cat. 17504044), 1X N-2 supplement (Thermo Fisher Scientific, cat. 17502048), 50 ng/mL human EGF (Thermo Fisher Scientific, cat. PHG0311), and 10 microM Y-27632 dihydrochloride (Tocris Bioscience, cat. 1254). The K12877-001-R-J1-PDC line was cultured in 6I media, which includes all 6C/Colon 1B media plus 10 ng/mL human FGF-10 (PeproTech, cat. 100-26), 1 ng/mL human FGF-2 (PeproTech, cat. 100-18B), 1 µM prostaglandin E2 (Tocris Bioscience, cat. 2296), […] hydrocortisone (Sigma-Aldrich, cat. H4001), and […] bovine insulin (Sigma-Aldrich, cat. I6634). The K86415-001-R-J1-PDC line was cultured in 6D media, which includes all 6C/Colon 1B media components minus the L-WRN conditioned media. The 485176-168-R4-J1-PDC was cultured in PANC media, which includes all 6C/Colon 1B media plus 100 ng/mL human FGF-10 (PeproTech, cat. 100-26), 500 nM SB-431542 (Selleckchem, cat. S1067), and 10 nM gastrin (Tocris Bioscience, cat. 3006). […]

[1] = second compound 0.0316 µM, first compound 0.0316 µM
[2] = second compound 0.0316 µM, first compound 0.1 µM
[3] = second compound 0.0316 µM, first compound 0.316 µM
[4] = second compound 0.0316 µM, first compound 1 µM
[5] = second compound 0.0316 µM, first compound 3.16 µM
[6] = second compound 0.0316 µM, first compound 10 µM
[7] = second compound 0.1 µM, first compound 0.0316 µM
[8] = second compound 0.1 µM, first compound 0.1 µM
[9] = second compound 0.1 µM, first compound 0.316 µM
[10] = second compound 0.1 µM, first compound 1 µM
[11] = second compound 0.1 µM, first compound 3.16 µM
[12] = second compound 0.1 µM, first compound 10 µM
[13] = second compound 0.316 µM, first compound 0.0316 µM
[14] = second compound 0.316 µM, first compound 0.1 µM
[15] = second compound 0.316 µM, first compound 0.316 µM
[16] = second compound 0.316 µM, first compound 1 µM
[17] = second compound 0.316 µM, first compound 3.16 µM
[18] = second compound 0.316 µM, first compound 10 µM
[19] = second compound 1 µM, first compound 0.0316 µM
[20] = second compound 1 µM, first compound 0.1 µM
[21] = second compound 1 µM, first compound 0.316 µM
[22] = second compound 1 µM, first compound 1 µM
[23] = second compound 1 µM, first compound 3.16 µM
[24] = second compound 1 µM, first compound 10 µM
[25] = second compound 3.16 µM, first compound 0.0316 µM
[26] = second compound 3.16 µM, first compound 0.1 µM
[27] = second compound 3.16 µM, first compound 0.316 µM
[28] = second compound 3.16 µM, first compound 1 µM
[29] = second compound 3.16 µM, first compound 3.16 µM
[30] = second compound 3.16 µM, first compound 10 µM
[31] = second compound 10 µM, first compound 0.0316 µM
[32] = second compound 10 µM, first compound 0.1 µM
[33] = second compound 10 µM, first compound 0.316 µM
[34] = second compound 10 µM, first compound 1 µM
[35] = second compound 10 µM, first compound 3.16 µM
[36] = second compound 10 µM, first compound 10 µM
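Further: spheroids exposed to agents for seven days before viability readout.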
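Wherever viability, T/C is given: 100% = DMSO vehicle control viability.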

## CC(C)NCC(C(=O)N1CCN(c2ncnc3c2C(C)CC3O)CC1)c1ccc(Cl)cc1 (centres undefined) + C#Cc1c(F)ccc2cc(O)cc(-c3ncc4c(N5CC6CCC(C5)N6)nc(OCC56CCCN5CC(F)C6)nc4c3F)c12
Second compound 0.0316 µM
  IC50: 8.8 µM
Second compound 0.1 µM
  IC50: 8.47 µM
Second compound 0.316 µM
  IC50: 7.91 µM
Second compound 1 µM
  IC50: 7.71 µM
Second compound 3.16 µM
  IC50: 4.6 µM
Second compound 10 µM
  IC50: 2.13 µM
[1]
  viability, T/C: 107%
[2]
  viability, T/C: 103%
[3]
  viability, T/C: 108%
[4]
  viability, T/C: 111%
[5]
  viability, T/C: 99.5%
[6]
  viability, T/C: 43.8%
[7]
  viability, T/C: 104%
[8]
  viability, T/C: 109%
[9]
  viability, T/C: 105%
[10]
  viability, T/C: 111%
[11]
  viability, T/C: 91.8%
[12]
  viability, T/C: 43%
[13]
  viability, T/C: 113%
[14]
  viability, T/C: 110%
[15]
  viability, T/C: 110%
[16]
  viability, T/C: 108%
[17]
  viability, T/C: 81.5%
[18]
  viability, T/C: 42%
[19]
  viability, T/C: 114%
[20]
  viability, T/C: 121%
[21]
  viability, T/C: 115%
[22]
  viability, T/C: 103%
[23]
  viability, T/C: 75.7%
[24]
  viability, T/C: 42.5%
[25]
  viability, T/C: 107%
[26]
  viability, T/C: 101%
[27]
  viability, T/C: 94.5%
[28]
  viability, T/C: 97.2%
[29]
  viability, T/C: 60.3%
[30]
  viability, T/C: 28.4%
[31]
  viability, T/C: 81.2%
[32]
  viability, T/C: 82.2%
[33]
  viability, T/C: 89.2%
[34]
  viability, T/C: 74.1%
[35]
  viability, T/C: 37.2%
[36]
  viability, T/C: 18.5%

## CC(Nc1ccc2c(c1)OCCn1cc(N3C(=O)OCC3C(F)F)nc1-2)C(N)=O (centres undefined) + C#Cc1c(F)ccc2cc(O)cc(-c3ncc4c(N5CC6CCC(C5)N6)nc(OCC56CCCN5CC(F)C6)nc4c3F)c12
Second compound 0.0316 µM
  IC50: > 10 µM
Second compound 0.1 µM
  IC50: > 10 µM
Second compound 0.316 µM
  IC50: > 10 µM
Second compound 1 µM
  IC50: > 10 µM
Second compound 3.16 µM
  IC50: > 10 µM
Second compound 10 µM
  IC50: < 0.0316 µM
[1]
  viability, T/C: 98.9%
[2]
  viability, T/C: 132%
[3]
  viability, T/C: 104%
[4]
  viability, T/C: 104%
[5]
  viability, T/C: 101%
[6]
  viability, T/C: 73%
[7]
  viability, T/C: 104%
[8]
  viability, T/C: 115%
[9]
  viability, T/C: 113%
[10]
  viability, T/C: 106%
[11]
  viability, T/C: 98.5%
[12]
  viability, T/C: 78.2%
[13]
  viability, T/C: 102%
[14]
  viability, T/C: 122%
[15]
  viability, T/C: 111%
[16]
  viability, T/C: 108%
[17]
  viability, T/C: 101%
[18]
  viability, T/C: 76.8%
[19]
  viability, T/C: 116%
[20]
  viability, T/C: 115%
[21]
  viability, T/C: 106%
[22]
  viability, T/C: 100%
[23]
  viability, T/C: 98.1%
[24]
  viability, T/C: 73.8%
[25]
  viability, T/C: 73.4%
[26]
  viability, T/C: 84.4%
[27]
  viability, T/C: 81.3%
[28]
  viability, T/C: 85.8%
[29]
  viability, T/C: 91.5%
[30]
  viability, T/C: 65.6%
[31]
  viability, T/C: 50.7%
[32]
  viability, T/C: 38.7%
[33]
  viability, T/C: 34%
[34]
  viability, T/C: 43.4%
[35]
  viability, T/C: 31.6%
[36]
  viability, T/C: 34.3%
